Experimental data as given in ChEMBL document CHEMBL1139921, “Synthesis and biological activity of 2-alkylbenzimidazoles bearing a N-phenylpyrrole moiety as novel angiotensin II AT1 receptor antagonists” (Bioorg Med Chem Lett, 2007).
The source made the active and inactive calls. The rule behind the calls is not given here.

Legend:
[1] = target: T1, Type-1 angiotensin II receptor (Oryctolagus cuniculus) (UniProt P34976); experiment: Antagonist activity at AT1 receptor assessed inhibition of norepinephrine-induced contraction of rabbit thoracic aortic rings; format: functional
T1 sequence (whole entry): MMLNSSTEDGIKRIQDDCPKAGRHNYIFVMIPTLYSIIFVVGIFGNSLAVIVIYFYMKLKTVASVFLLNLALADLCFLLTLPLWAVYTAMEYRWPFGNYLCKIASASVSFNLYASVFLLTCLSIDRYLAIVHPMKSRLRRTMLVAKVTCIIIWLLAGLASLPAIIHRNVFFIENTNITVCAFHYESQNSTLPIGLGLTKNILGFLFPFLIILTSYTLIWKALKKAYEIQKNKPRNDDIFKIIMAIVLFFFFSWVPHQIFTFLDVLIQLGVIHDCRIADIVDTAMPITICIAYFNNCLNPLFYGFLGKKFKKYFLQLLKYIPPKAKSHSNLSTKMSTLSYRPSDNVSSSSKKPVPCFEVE

[2] = target: T2, Type-1 angiotensin II receptor (Oryctolagus cuniculus, UniProt P34976); experiment: Antagonist activity at AT1 receptor assessed inhibition of angiotensin-2-induced contraction of rabbit thoracic aortic rings; format: functional; conditions: read-out: pA2 (converted)
T2 sequence (P34976 whole entry): T1 sequence (whole entry)

[3] = target: T1, Type-1 angiotensin II receptor (Oryctolagus cuniculus); experiment: Antagonist activity at AT1 receptor assessed inhibition of KCl-induced contraction of rabbit thoracic aortic rings; format: functional
[4] = target: T3, Type-1 angiotensin II receptor (Bos taurus, UniProt P25104); experiment: Displacement of [125I]angiotensin-2 from bovine adrenal cortex AT1 receptor; format: tissue-based
T3 sequence (P25104 whole entry): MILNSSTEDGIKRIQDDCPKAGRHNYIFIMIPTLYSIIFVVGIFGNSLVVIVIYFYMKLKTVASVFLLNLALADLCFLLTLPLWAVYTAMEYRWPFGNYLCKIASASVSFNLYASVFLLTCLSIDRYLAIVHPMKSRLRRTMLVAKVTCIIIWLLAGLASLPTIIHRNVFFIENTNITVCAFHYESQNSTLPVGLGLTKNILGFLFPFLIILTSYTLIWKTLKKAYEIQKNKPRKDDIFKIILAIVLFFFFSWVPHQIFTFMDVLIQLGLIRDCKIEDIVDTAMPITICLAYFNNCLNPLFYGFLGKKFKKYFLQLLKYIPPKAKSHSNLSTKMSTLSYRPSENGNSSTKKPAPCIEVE

Rattus norvegicus [5] = experiment: Reduction of mean arterial pressure in spontaneously hypertensive rat at 1 mg/kg, po; format: functional, organism-based; design: dose 1 mg/kg; conditions: Artery
Rattus norvegicus [6] = experiment: Inhibition of angiotensin-2-induced pressor response in normotensive rat at 1 mg/kg, po; format: functional, organism-based; design: dose 1 mg/kg
Rattus norvegicus [7] = experiment: Decrease in mean arterial pressure in po dosed spontaneously hypertensive rat; format: functional, organism-based; conditions: Artery
[8] = target: T1, Type-1 angiotensin II receptor (Oryctolagus cuniculus); experiment: Antagonist activity at AT1 receptor assessed inhibition of histamine-induced contraction of rabbit thoracic aortic rings; format: functional

Row | SMILES | Activity [1] | Kb [2] | Activity [3] | IC50 [4] | Activity (Rattus norvegicus [5]) | Activity (Rattus norvegicus [6]) | Activity (Rattus norvegicus [7]) | Activity [8]
1 | CCCCc1nc2cccc(C(=O)OC)c2n1Cc1ccc(-n2cccc2-c2nnn[nH]2)cc1 | inactive | 0.00398 µM | inactive | 0.0098 µM | Active | Active | Dose-dependent effect | inactive
2 | CCCc1nc2cccc(C(=O)O)c2n1Cc1ccc(-n2cccc2C(=O)O)cc1 |  | 0.1 µM |  | 0.092 µM |  |  |  | 
3 | CCCc1nc2cccc(C(=O)OC)c2n1Cc1ccc(-n2cccc2-c2nnn[nH]2)cc1 |  | 0.0126 µM |  | 0.032 µM |  |  |  | 
4 | CCCCc1nc2cccc(C(=O)O)c2n1Cc1ccc(-n2cccc2C(=O)O)cc1 |  | 0.01 µM |  | 0.033 µM |  |  |  | 
5 | CCc1nc2cccc(C(=O)O)c2n1Cc1ccc(-n2cccc2C(=O)O)cc1 |  | 0.316 µM |  | 0.16 µM |  |  |  | 
6 | CCc1nc2cccc(C(=O)OC)c2n1Cc1ccc(-n2cccc2-c2nnn[nH]2)cc1 |  | 0.0316 µM |  | 0.14 µM |  |  |  | 
7 | CCCCc1nc2cccc(C(=O)OCC)c2n1Cc1ccc(-n2cccc2-c2nnn[nH]2)cc1 |  | 0.0158 µM |  | 0.019 µM |  |  |  | 
8 | CCCc1nc2cccc(C(=O)OCC)c2n1Cc1ccc(-n2cccc2-c2nnn[nH]2)cc1 |  | 0.0794 µM |  | 0.041 µM |  |  |  | 
9 | CCCc1nc2cccc(C(=O)O)c2n1Cc1ccc(-n2cccc2-c2nnn[nH]2)cc1 |  | 0.00631 µM |  | 0.016 µM |  |  |  | 
10 | Cc1nc2cccc(C(=O)O)c2n1Cc1ccc(-n2cccc2C(=O)O)cc1 |  | 1.26 µM |  | 0.25 µM |  |  |  | 
11 | COC(=O)c1cccc2nc(C)n(Cc3ccc(-n4cccc4-c4nnn[nH]4)cc3)c12 |  | 0.1 µM |  | 0.2 µM |  |  |  | 
12 | CCCCc1nc2cccc(C(=O)O)c2n1Cc1ccc(-n2cccc2-c2nnn[nH]2)cc1 | inactive | 0.00316 µM | inactive | 0.0069 µM | Active | Active | Dose-dependent effect | inactive
